Where a name gives a salt, the structure may show the parent alone.
melting point [°C]	SMILES
178 to 188	Cl.Cl.O=C(C=Cc1cccnc1)NCCCCC1CCNCC1
156	O=C(C=Cc1cccnc1)NCCCCC1CCN(C(c2ccccc2)c2ccccc2)CC1 (as salt: methanesulfonate) [Substance 104, N-[4-(1-Diphenylmethylpiperidin-4-yl)-butyl]-3-(pyridin-3-yl)-acrylamide]
72 to 74	O=C(C=Cc1cccnc1)NCC1CN(C(c2ccccc2)c2ccccc2)C1 [Substance 2, N-(1-Diphenylmethylazetidin-3-ylmethyl)-3-(pyridin-3-yl)-acrylamide]
88 to 90	O=C(C=Cc1cccnc1)NCCCCC1CCN(Cc2ccccc2)CC1 [Substance 46, N-[4-(1-Benzylpiperidin-4-yl)-butyl]-3-(pyridin-3-yl)-acrylamide]
100 to 102	O=C(C=Cc1cccnc1)NCCCOC1CCN(Cc2ccccc2)CC1 [Substance 55, N-[3-(1-Benzylpiperidine-4-yloxy)-propyl]-3-(pyridin-3-yl)-acrylamide]
141 to 143	O=C(C=Cc1cccnc1)NCCC1CCN(C(c2ccccc2)c2ccccc2)CC1 [Substance 95, N-[2-(1-Diphenylmethylpiperidin-4-yl)-ethyl]-3-(pyridin-3-yl)-acrylamide]
109 to 110	O=C(CCc1cccnc1)NCCCC1CCN(C(c2ccccc2)c2ccccc2)CC1 [Substance 96, N-[3-(1-Diphenylmethylpiperidin-4-yl)-propyl]-3-(pyridin-3-yl)-propionamide]
115 to 117	CCN(CCCCC1CCN(C(c2ccccc2)c2ccccc2)CC1)C(=O)/C=C/c1cccnc1 [Substance 123, N-[4-(1-Diphenylmethylpiperidin-4-yl)-butyl]-N-ethyl-3-(pyridin-3-yl)-acrylamide]
103 to 105	O=C(COc1cccnc1)NCCCCC1CCN(C(c2ccccc2)c2ccccc2)CC1 [Substance 129, N-[4-(1-Diphenylmethylpiperidin-4-yl)-butyl]-2-(pyridin-3-yloxy)-acetamide]
164 to 166	O=C(C=CC=Cc1cccnc1)NCCCCC1CCN(C(c2ccccc2)c2ccccc2)CC1 [Substance 132, N-[4-(1-Diphenylmethylpiperidine-4-yl)-butyl]-5-(pyridin-3-yl)-2,4-pentadienoic Acid Amide]
112 to 114	O=C(CCc1cccnc1)NCCCCCC1CCN(C(c2ccccc2)c2ccccc2)CC1 [Substance 142, N-[5-(1-Diphenylmethylpiperidin-4-yl)-pentyl]-3-(pyridin-3-yl)-propionamide]
108	O=C(C=Cc1cccnc1)NCCCCC1CCN(C(c2ccc(F)cc2)c2ccc(F)cc2)CC1 [Substance 171, N-(4-{1-[bis-(4-Fluorophenyl)-methyl]-piperidin-4-yl}-butyl)-3-(pyridin-3-yl)-acrylamide]
110 to 112	O=C(CCc1cccnc1)NCCCCC1CCN(C2c3ccccc3COc3ccccc32)CC1 (stereo not drawn) [Substance 230, N-{4-[1-(6,11-Dihydrodibenzo[b,e]-oxepin-11-yl)-piperidine-4-yl]-butyl}-3-(pyridin-3-yl)-propionamide]
80 to 82	O=C(C=Cc1cccnc1)NCCCCC1CCN(C(=O)c2cccc3c2-c2ccccc2C3=O)CC1 [Substance 277, N-{4-[1-(9-oxo-9H-Fluorene-4-carbonyl)-piperidine-4-yl]-butyl}-3-(pyridin-3-yl)-acrylamide]
103 to 105	O=C(CCc1cccnc1)NCCCCC1CCN(S(=O)(=O)c2ccc3ccccc3c2)CC1 [Substance 337, N-{4-[1-(2-Naphthylsulfonyl)-piperidin-4-yl]-butyl}-3-(pyridin-3-yl)-propionamide]
